PubChem BioAssay (NCI)
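Interpolation was linear, between the two tested concentrations surrounding the appropriate level; five concentrations were tested over 48 hours in 96-well plates. GI50 is the concentration that inhibits growth by half. TGI marks complete inhibition of growth.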

Columns and labels:
Assay in all cases: NCI-60 cell line screen, 48 h
HT29 colon = system: HT29 colon
SNB-19 CNS = system: SNB-19 CNS
HCC-2998 colon = system: HCC-2998 colon
HOP-92 NSCLC = system: HOP-92 NSCLC
OVCAR-8 ovarian = system: OVCAR-8 ovarian
OVCAR-3 ovarian = system: OVCAR-3 ovarian
TK-10 renal = system: TK-10 renal
A549 NSCLC = system: A549 NSCLC
EKVX NSCLC = system: EKVX NSCLC
PC-3 prostate = system: PC-3 prostate
HL-60(TB) leukemia = system: HL-60(TB) leukemia
SF-295 CNS = system: SF-295 CNS
K-562 leukemia = system: K-562 leukemia
HCT-15 colon = system: HCT-15 colon
BT-549 breast = system: BT-549 breast
MALME-3M melanoma = system: MALME-3M melanoma
IGROV1 ovarian = system: IGROV1 ovarian
COLO 205 colon = system: COLO 205 colon
ACHN renal = system: ACHN renal
CAKI-1 renal = system: CAKI-1 renal
NCI-H460 lung = system: NCI-H460 lung
SN12C renal = system: SN12C renal
SNB-75 CNS = system: SNB-75 CNS
OVCAR-4 ovarian = system: OVCAR-4 ovarian
MDA-MB-435 = system: MDA-MB-435
SF-539 CNS = system: SF-539 CNS
LOX IMVI melanoma = system: LOX IMVI melanoma
UACC-62 melanoma = system: UACC-62 melanoma
SK-MEL-2 melanoma = system: SK-MEL-2 melanoma
A498 renal = system: A498 renal
CCRF-CEM leukemia = system: CCRF-CEM leukemia
HS 578T breast = system: HS 578T breast
786-0 renal = system: 786-0 renal
SK-MEL-28 melanoma = system: SK-MEL-28 melanoma
U251 CNS = system: U251 CNS
T-47D breast = system: T-47D breast
NCI-H23 lung = system: NCI-H23 lung
M14 melanoma = system: M14 melanoma
SR leukemia = system: SR leukemia
NCI/ADR-RES ovarian = system: NCI/ADR-RES ovarian
RPMI-8226 leukemia = system: RPMI-8226 leukemia
RXF 393 renal = system: RXF 393 renal
SK-MEL-5 melanoma = system: SK-MEL-5 melanoma
UACC-257 melanoma = system: UACC-257 melanoma
NCI-H226 lung = system: NCI-H226 lung
KM12 colon = system: KM12 colon
OVCAR-5 ovarian = system: OVCAR-5 ovarian
MDA-MB-231 breast = system: MDA-MB-231 breast
SW-620 colon = system: SW-620 colon
NCI-H522 lung = system: NCI-H522 lung
MOLT-4 leukemia = system: MOLT-4 leukemia
UO-31 renal = system: UO-31 renal
HOP-62 NSCLC = system: HOP-62 NSCLC
SF-268 CNS = system: SF-268 CNS
MCF7 breast = system: MCF7 breast
SK-OV-3 ovarian = system: SK-OV-3 ovarian
DU-145 prostate = system: DU-145 prostate
HCT-116 colon = system: HCT-116 colon

`N=C(N)SCc1c2ccccc2c(CSC(=N)N)c2ccccc12` showed a GI50 (HT29 colon) of 5.94 µM, a TGI (HT29 colon) of 21.9 µM and a GI50 (SNB-19 CNS) of 11.5 µM. It also gave a TGI (SNB-19 CNS) of 25 µM, a GI50 (HCC-2998 colon) of 11.3 µM and a TGI (HCC-2998 colon) of 23.7 µM. For the same compound, the GI50 (HOP-92 NSCLC) was 2.8 µM, the TGI (HOP-92 NSCLC) was 19.9 µM and the GI50 (OVCAR-8 ovarian) was 6.49 µM. The TGI (OVCAR-8 ovarian) was 50.4 µM, the GI50 (OVCAR-3 ovarian) was 12.4 µM and the TGI (OVCAR-3 ovarian) was 30.2 µM. For the same compound, the GI50 (TK-10 renal) was 22.3 µM, the TGI (TK-10 renal) was 45.3 µM and the GI50 (A549 NSCLC) was 3.61 µM. It also gave a TGI (A549 NSCLC) of 30.9 µM, a GI50 (EKVX NSCLC) of 13.4 µM and a TGI (EKVX NSCLC) of 51.6 µM. It also gave a GI50 (PC-3 prostate) of 10.3 µM, a TGI (PC-3 prostate) of 23.9 µM and a GI50 (HL-60(TB) leukemia) of 4.06 µM. The TGI (HL-60(TB) leukemia) was 23.3 µM, the GI50 (SF-295 CNS) was 5.25 µM and the TGI (SF-295 CNS) was 24.2 µM. It also gave a GI50 (K-562 leukemia) of 3.51 µM, a TGI (K-562 leukemia) of 17.9 µM and a GI50 (HCT-15 colon) of 12.4 µM. For the same compound, the TGI (HCT-15 colon) was 32.4 µM, the GI50 (BT-549 breast) was 16.9 µM and the TGI (BT-549 breast) was 58.3 µM. For the same compound, the GI50 (MALME-3M melanoma) was 6.85 µM, the TGI (MALME-3M melanoma) was 25.2 µM and the GI50 (IGROV1 ovarian) was 18.2 µM. The TGI (IGROV1 ovarian) was 78.4 µM, the GI50 (COLO 205 colon) was 2.75 µM and the TGI (COLO 205 colon) was 14.1 µM. For the same compound, the GI50 (ACHN renal) was 3.99 µM, the TGI (ACHN renal) was 18.5 µM and the GI50 (CAKI-1 renal) was 7.28 µM. It also gave a TGI (CAKI-1 renal) of 27.7 µM, a GI50 (NCI-H460 lung) of 1.08 µM and a TGI (NCI-H460 lung) of 15.3 µM. It also gave a GI50 (SN12C renal) of 3 µM, a TGI (SN12C renal) of 25.7 µM and a GI50 (SNB-75 CNS) of 12.2 µM. For the same compound, the TGI (SNB-75 CNS) was 26.9 µM, the GI50 (OVCAR-4 ovarian) was 11.7 µM and the TGI (OVCAR-4 ovarian) was 35.5 µM. It also gave a GI50 (MDA-MB-435) of 12.1 µM, a TGI (MDA-MB-435) of 32.6 µM and a GI50 (SF-539 CNS) of 5.11 µM. The TGI (SF-539 CNS) was 19.4 µM, the GI50 (LOX IMVI melanoma) was 1.4 µM and the TGI (LOX IMVI melanoma) was 21.9 µM. The GI50 (UACC-62 melanoma) was 3.59 µM, the TGI (UACC-62 melanoma) was 20.3 µM and the GI50 (SK-MEL-2 melanoma) was 18 µM. The TGI (SK-MEL-2 melanoma) was 41.3 µM, the GI50 (A498 renal) was 7.42 µM and the TGI (A498 renal) was 22.9 µM. For the same compound, the GI50 (CCRF-CEM leukemia) was 4.7 µM, the TGI (CCRF-CEM leukemia) was 36.1 µM and the GI50 (HS 578T breast) was 5.75 µM. It also gave a TGI (HS 578T breast) of 34.3 µM, a GI50 (786-0 renal) of 9.35 µM and a TGI (786-0 renal) of 24 µM. It also gave a GI50 (SK-MEL-28 melanoma) of 10.6 µM, a TGI (SK-MEL-28 melanoma) of 24.1 µM and a GI50 (U251 CNS) of 3.13 µM. The TGI (U251 CNS) was 26.7 µM, the GI50 (T-47D breast) was 3.97 µM and the TGI (T-47D breast) was 22.1 µM. The GI50 (NCI-H23 lung) was 4.04 µM, the TGI (NCI-H23 lung) was 20.5 µM and the GI50 (M14 melanoma) was 10.9 µM. For the same compound, the TGI (M14 melanoma) was 25.5 µM, the GI50 (SR leukemia) was 0.408 µM and the TGI (SR leukemia) was 3.03 µM. It also gave a GI50 (NCI/ADR-RES ovarian) of 23.8 µM, a TGI (NCI/ADR-RES ovarian) of over 100 µM and a GI50 (RPMI-8226 leukemia) of 2.56 µM. It also gave a TGI (RPMI-8226 leukemia) of 16.8 µM, a GI50 (RXF 393 renal) of 8.22 µM and a TGI (RXF 393 renal) of 23.7 µM. It also gave a GI50 (SK-MEL-5 melanoma) of 6.03 µM, a TGI (SK-MEL-5 melanoma) of 20.2 µM and a GI50 (UACC-257 melanoma) of 23.2 µM. It also gave a TGI (UACC-257 melanoma) of 45 µM, a GI50 (NCI-H226 lung) of 6.44 µM and a TGI (NCI-H226 lung) of 30.6 µM. The GI50 (KM12 colon) was 10.3 µM, the TGI (KM12 colon) was 23.4 µM and the GI50 (OVCAR-5 ovarian) was 14.8 µM. For the same compound, the TGI (OVCAR-5 ovarian) was 28.7 µM, the GI50 (MDA-MB-231 breast) was 12 µM and the TGI (MDA-MB-231 breast) was 45.1 µM. For the same compound, the GI50 (SW-620 colon) was 3.75 µM, the TGI (SW-620 colon) was 19.7 µM and the GI50 (NCI-H522 lung) was 3.23 µM. The TGI (NCI-H522 lung) was 30.7 µM, the GI50 (MOLT-4 leukemia) was 1.24 µM and the TGI (MOLT-4 leukemia) was 8.23 µM. The GI50 (UO-31 renal) was 14.1 µM, the TGI (UO-31 renal) was 34.5 µM and the GI50 (HOP-62 NSCLC) was 10.5 µM. It also gave a TGI (HOP-62 NSCLC) of 26.5 µM, a GI50 (SF-268 CNS) of 4.32 µM and a TGI (SF-268 CNS) of 26 µM. It also gave a GI50 (MCF7 breast) of 1.54 µM, a TGI (MCF7 breast) of 15.5 µM and a GI50 (SK-OV-3 ovarian) of 10.4 µM. The TGI (SK-OV-3 ovarian) was 22.6 µM, the GI50 (DU-145 prostate) was 5.63 µM and the TGI (DU-145 prostate) was 20 µM. The GI50 (HCT-116 colon) was 2.59 µM and the TGI (HCT-116 colon) was 16.6 µM.
